How the values were obtained:
Acute toxicity (LD50) = assay type: in vivo; details: for acute toxicity (in words): rats; for LD50: rat, in vivo
Procedure: The test compounds were administered orally to SD strain male rats weighing about 270 g and SD strain female rats weighing about 170 g.

[1] = biological target: T1, Urease extracted and purified from sword bean (Canavalia gladiata, UniProt A0AAN9R4W0); assay: Urease inhibitory activity (I50), method of Kobashi et al.; assay type: biochemical; details: read-out: Urease-inhibitory activity I50
T1 construct: nickel homohexamer by analogy with jack bean urease
T1 sequence (A0AAN9R4W0 entry or part of it): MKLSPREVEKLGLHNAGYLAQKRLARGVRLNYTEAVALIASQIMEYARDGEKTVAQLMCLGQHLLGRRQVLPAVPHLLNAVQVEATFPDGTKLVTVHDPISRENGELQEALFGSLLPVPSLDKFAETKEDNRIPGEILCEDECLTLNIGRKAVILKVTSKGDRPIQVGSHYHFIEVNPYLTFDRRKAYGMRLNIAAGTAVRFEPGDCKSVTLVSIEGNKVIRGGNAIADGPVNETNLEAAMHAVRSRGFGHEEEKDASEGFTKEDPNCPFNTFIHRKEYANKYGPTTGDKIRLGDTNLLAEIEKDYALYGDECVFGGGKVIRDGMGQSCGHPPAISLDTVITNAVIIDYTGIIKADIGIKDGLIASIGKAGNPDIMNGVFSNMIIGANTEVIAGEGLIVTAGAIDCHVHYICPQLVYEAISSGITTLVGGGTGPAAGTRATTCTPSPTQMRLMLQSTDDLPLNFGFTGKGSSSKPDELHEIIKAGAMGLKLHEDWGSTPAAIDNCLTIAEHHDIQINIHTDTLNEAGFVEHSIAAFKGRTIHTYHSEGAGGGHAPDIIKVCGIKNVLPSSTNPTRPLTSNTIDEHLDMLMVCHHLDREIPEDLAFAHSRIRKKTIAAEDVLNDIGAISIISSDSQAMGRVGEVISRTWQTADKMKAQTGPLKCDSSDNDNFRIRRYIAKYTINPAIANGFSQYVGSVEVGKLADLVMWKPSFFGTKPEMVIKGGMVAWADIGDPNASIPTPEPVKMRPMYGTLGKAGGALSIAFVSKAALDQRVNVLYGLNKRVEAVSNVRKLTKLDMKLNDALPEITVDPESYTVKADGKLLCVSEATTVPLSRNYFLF
Procedure: (1) Measurement of urease inhibitory activity of test compounds
Urease was extracted and purified from sword bean and molar concentrations of the test compounds causing 50% inhibition of urease activity (I50) were determined by the method of Kobashi et al. [Refer to Biochim, Biophys. Acta 227, 429-441 (1971).]

Proteus mirabilis (OM-1) [2] = assay: Inhibitory effect on alkalization of urine; assay type: cell-based; details: for pH value (mean value ± S. E.) 8 hours after inoculation: normal human urine, Proteus mirabilis 2.75×10^5 cells/ml, 37° C.; for inhibition of the alkalization of urine (in words): Proteus mirabilis (OM-1) inoculated to normal human urine
Procedure: (§1) To 18 ml of normal human urine was added each test compound to make 10^-3 M and 2×10^-4 M test solution in a final concentration.
(§2) On the other hand, distilled water was added to 18 ml of normal human urine instead of the test compound to make a blank solution.
(§3) To the solution was inoculated intact Proteus mirabilis (OM-1) to make a cell suspension of 2.75×10^5 cells/ml and harvested at 37° C. Before inoculation and at 8 hours after inoculation, the pH values of the solution were measured.

[3] = Urinary excretion in rats; assay type: in vivo, SD strain male rats; details: rat, po; 100 mg/Kg orally, SD male rats, urine excreted within 24 hours; read-out: Urinary excretion (%) (mean value ± S. E.)
Procedure: (2) Measurement of urinary excretion in rats
100 mg/Kg of the test compounds were administered orally to the SD strain male rats weighing about 300 g, and urine specimens excreted within 24 hours were collected by cross-over method. Amounts of the test compounds in urine were determined according to the method of Kobashi et al. [Refer to Yakugaku Zasshi 93 (12), 1564-1572 (1973); J. Biochem. 83, 287-293 (1973).]

Proteus mirabilis (OM-1) [4] = assay: Inhibitory effect on calculus formation in urine; assay type: cell-based; details: for inhibition of the calculus formation in urine (in words): Proteus mirabilis (OM-1) inoculated to normal human urine; for inhibition at 200 µM / inhibition at 1000 µM: Proteus mirabilis, 8 h, normal human urine, read-out: Inhibitory rate of calculus formation (%) (mean value ± S. E.) 8 hours after inoculation; for inhibition at 200 µM: 2 × 10^-4 M test compound; for inhibition at 1000 µM: 10^-3 M test compound
Procedure: as §1, §2, §3
Inhibitory rate of calculi formation was calculated by measuring the weight of formed calculi.

[5] = system: Salmonela typhimurium TA-98 and TA-100; assay: Mutagenic activity in microbial tests; assay type: cell-based, Salmonella typhimurium
Procedure: The screening of mutagenicity was carried out according to Ames test [Refer to Ames B. N. et al.: Proc: Natl. Acad. Sci. U.S.A., 72, 979-983 (1975)] which is now widely utilized all over the world as an examination for detection of mutagenicity.
Using the strain of Salmonela typhimurium TA-98 and TA-100 as the test bacteria, the mutageic activity was examined for the test compounds untreated with S-9 (9,000×g supernatant fraction of the rat liver homogenate induced with PCB) and the test compounds treated with S-9, respectively. The examined concentration of the test compounds was up to 40,000 μg/ml. Dimethyl sulfoxide (DMSO) was used as solvent.
The result of examination was judged to be positive, when the number of reverse mutation colony was twice comparing with the control group and the positive correlation between dosage and mutagenic activity of the test compound was recognized.

[6] = clinical study of urolithiasis; cited from earlier work

## CCC(CC)C(=O)NCC(=O)NO [Compound B, N-(2-ethyl-n-butyloyl)-glycinohydroxamic acid]
Acute toxicity (LD50); oral
  acute toxicity (in words): low
Acute toxicity (LD50); po
  LD50: > 9000 mg/kg
[1]
  IC50: 790 nM
Proteus mirabilis (OM-1) [2]; 2 × 10^-4 M test compound
  pH value (mean value ± S. E.) 8 hours after inoculation: 7.24 ± 0.04
Proteus mirabilis (OM-1) [2]; 10^-3 M test compound
  pH value (mean value ± S. E.) 8 hours after inoculation: 6.14 ± 0.01
Proteus mirabilis (OM-1) [2]
  inhibition of the alkalization of urine (in words): inhibited the alkalization of urine
[3]
  dose excreted at 24 h: 5.37 ± 0.852%
Proteus mirabilis (OM-1) [4]
  inhibition of the calculus formation in urine (in words): inhibited
  inhibition at 200 µM: 93.7 ± 1.6%
  inhibition at 1000 µM: 95.7%

## O=C(CNC(=O)c1ccc(Cl)cc1)NO [Benurestat, 2-(para-chlorobenzamide)-acetohydroxamic acid]
[5]
  mutagenic activity (in words): have the mutagenic activity

## COc1cccc(C(=O)NCC(=O)NO)c1 [2-(meta-methoxybenzamide)-acetohydroxamic acid]
[5]
  mutagenic activity (in words): show mutagenecity

## CC(=O)NO [CH3 CONHOH, Acetohydroxamic acid]
[6]
  decreasing the amount of ammonia in urine and preventing the alkalization of urine (in words): effective
[5]
  mutagenic activity (in words): have the mutagenic activity

## COc1ccc(C(=O)NCC(=O)NO)cc1 [2-(para-methoxybenzamide)-acetohydroxamic acid]
[5]
  mutagenic activity (in words): show mutagenecity

## CC(C)(C)C(=O)NCC(=O)NO [Compound A, N-(pivaloyl)-glycinohydroxamic acid]
Acute toxicity (LD50); oral
  acute toxicity (in words): low
Acute toxicity (LD50); oral, SD male and female rats
  LD50: > 9000 mg/kg
[1]
  IC50: 4380 nM
Proteus mirabilis (OM-1) [2]; 2 × 10^-4 M test compound
  pH value (mean value ± S. E.) 8 hours after inoculation: 8.41 ± 0.007
Proteus mirabilis (OM-1) [2]; 10^-3 M test compound
  pH value (mean value ± S. E.) 8 hours after inoculation: 7.33 ± 0.09
Proteus mirabilis (OM-1) [2]
  inhibition of the alkalization of urine (in words): inhibited the alkalization of urine
[3]
  dose excreted at 24 h: 14.6 ± 1.82%
Proteus mirabilis (OM-1) [4]
  inhibition of the calculus formation in urine (in words): inhibited
  inhibition at 200 µM: 50 ± 5.2%
  inhibition at 1000 µM: 82 ± 8.2%

## CCC(C)C(=O)NCC(=O)NO (racemic) [Compound C, N-(DL-2-methyl-n-butyloyl)-glycinohydroxamic acid]
Acute toxicity (LD50); oral
  acute toxicity (in words): low
Acute toxicity (LD50); oral, SD male and female rats
  LD50: > 9000 mg/kg
[1]
  IC50: 1290 nM
[3]
  dose excreted at 24 h: 9.25 ± 2.16%

## O=C(CNC(=O)c1ccco1)NO [2-(2-furoylamino)-acetohydroxamic acid]
[5]
  mutagenic activity (in words): show mutagenecity

## CC(=O)Nc1cccc(C(=O)NCC(=O)NO)c1 [2-(meta-acetylaminobenzamide)-acetohydroxamic acid]
[5]
  mutagenic activity (in words): show mutagenecity
